Experimental data taken from PMC12614342, “Azetidine amino acid biosynthesis by non-haem iron-dependent enzymes” (Nature Chemistry, 2025).

Legend:
PolF [1] = target: T1, PolF (Streptomyces asoensis, UniProt C1IC29); settings: Fe(II), O2, ascorbate; 50 mM HEPES pH 7.6, 25 °C (stopped-flow 5 °C, no ascorbate)
PolF [2] = target: T1, PolF; settings: Fe(II)2 form; L-Ile bidentate on Fe1; TEV-cleaved tagless protein, crystals grown with 15 mM L-Ile, pH 8.5
PolE = target: T2, PolE (Streptomyces asoensis, UniProt C1IC30); settings: Fe(II), BH4, O2, ascorbate; 50 mM HEPES pH 7.6, 25 °C
T2 construct: gene Saso_24180
T2 sequence (C1IC30 entry or part of it): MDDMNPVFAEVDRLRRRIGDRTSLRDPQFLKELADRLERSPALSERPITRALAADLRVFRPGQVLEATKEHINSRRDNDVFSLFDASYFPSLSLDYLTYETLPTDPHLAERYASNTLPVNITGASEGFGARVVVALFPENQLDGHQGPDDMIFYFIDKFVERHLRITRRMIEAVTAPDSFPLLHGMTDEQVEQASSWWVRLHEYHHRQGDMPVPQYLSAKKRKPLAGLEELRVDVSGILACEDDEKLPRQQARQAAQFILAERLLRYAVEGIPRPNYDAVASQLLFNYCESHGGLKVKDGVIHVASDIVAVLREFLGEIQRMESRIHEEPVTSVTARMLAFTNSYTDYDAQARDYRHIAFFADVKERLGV

Row | Structure (SMILES) | LC-MS of dansylated products; stopped-flow at 614 nm (PolF [1]) | X-ray crystal structure of the complex (PolF [2]) | LC-MS of dansylated desaturation product (PolE)
1 | CC(C)[C@H](N)C(=O)O [L-Val] | the reaction with L-Val yielded a product with a −4-Da modification | – | –
2 | CC[C@H](C)[C@H](N)C(=O)O [L-Ile] | – | The L-Ile substrate directly coordinates Fe1 in a bidentate fashion | PolE catalysed the desaturation of L-Ile in the presence of BH4
